From ChEMBL document CHEMBL1135274, “Spirocyclic nonpeptide glycoprotein IIb-IIIa antagonists. Part 3: synthesis and SAR of potent and specific 2,8-diazaspiro[4.5]decanes” (Bioorg Med Chem Lett, 2002)

Experiments:
[1] = target: Integrin alpha-IIb/beta-3 (Homo sapiens, UniProt P05106+P08514); assay: In vitro activity to block the binding of fibrinogen to purified human fibrinogen receptor.; type: protein-complex assay
Homo sapiens = species on record: Homo sapiens; assay: In vitro ability to inhibit aggregation of ADP stimulated human platelets using PRP assay.; type: functional
[2] = Plasma half life was reported after a intravenous dose of 1 mg/kg in Dawley rat; type: ADME, organism-based; set-up: dose 1 mg/kg, route intravenous; conditions: Sprague-Dawley
[3] = Oral bioavailability in rat (Sprague-Dawley) (dose 1 mg/kg p.o.); type: ADME, organism-based; conditions: in vivo

Integrin alpha-IIb/beta-3, sequence (P05106 27-788 limits assumed): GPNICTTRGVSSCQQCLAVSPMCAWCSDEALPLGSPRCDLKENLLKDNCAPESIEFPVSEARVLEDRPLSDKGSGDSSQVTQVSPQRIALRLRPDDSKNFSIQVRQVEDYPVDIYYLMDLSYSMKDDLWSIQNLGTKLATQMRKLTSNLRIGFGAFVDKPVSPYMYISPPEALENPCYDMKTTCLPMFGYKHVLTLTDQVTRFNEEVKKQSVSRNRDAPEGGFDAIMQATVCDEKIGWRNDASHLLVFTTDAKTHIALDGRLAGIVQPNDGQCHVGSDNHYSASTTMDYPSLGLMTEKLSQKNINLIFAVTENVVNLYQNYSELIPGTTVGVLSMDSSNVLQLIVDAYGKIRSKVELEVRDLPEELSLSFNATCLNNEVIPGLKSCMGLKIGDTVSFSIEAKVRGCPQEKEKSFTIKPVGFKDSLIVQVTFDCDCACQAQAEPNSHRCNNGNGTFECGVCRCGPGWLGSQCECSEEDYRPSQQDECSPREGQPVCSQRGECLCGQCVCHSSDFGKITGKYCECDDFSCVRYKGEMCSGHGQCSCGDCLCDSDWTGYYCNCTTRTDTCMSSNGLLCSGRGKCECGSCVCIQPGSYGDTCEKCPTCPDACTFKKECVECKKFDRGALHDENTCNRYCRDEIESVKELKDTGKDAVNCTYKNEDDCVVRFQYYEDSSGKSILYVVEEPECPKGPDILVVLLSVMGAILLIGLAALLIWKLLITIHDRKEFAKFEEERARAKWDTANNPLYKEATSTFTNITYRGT
Integrin alpha-IIb/beta-3, sequence (P08514 32-887 limits assumed): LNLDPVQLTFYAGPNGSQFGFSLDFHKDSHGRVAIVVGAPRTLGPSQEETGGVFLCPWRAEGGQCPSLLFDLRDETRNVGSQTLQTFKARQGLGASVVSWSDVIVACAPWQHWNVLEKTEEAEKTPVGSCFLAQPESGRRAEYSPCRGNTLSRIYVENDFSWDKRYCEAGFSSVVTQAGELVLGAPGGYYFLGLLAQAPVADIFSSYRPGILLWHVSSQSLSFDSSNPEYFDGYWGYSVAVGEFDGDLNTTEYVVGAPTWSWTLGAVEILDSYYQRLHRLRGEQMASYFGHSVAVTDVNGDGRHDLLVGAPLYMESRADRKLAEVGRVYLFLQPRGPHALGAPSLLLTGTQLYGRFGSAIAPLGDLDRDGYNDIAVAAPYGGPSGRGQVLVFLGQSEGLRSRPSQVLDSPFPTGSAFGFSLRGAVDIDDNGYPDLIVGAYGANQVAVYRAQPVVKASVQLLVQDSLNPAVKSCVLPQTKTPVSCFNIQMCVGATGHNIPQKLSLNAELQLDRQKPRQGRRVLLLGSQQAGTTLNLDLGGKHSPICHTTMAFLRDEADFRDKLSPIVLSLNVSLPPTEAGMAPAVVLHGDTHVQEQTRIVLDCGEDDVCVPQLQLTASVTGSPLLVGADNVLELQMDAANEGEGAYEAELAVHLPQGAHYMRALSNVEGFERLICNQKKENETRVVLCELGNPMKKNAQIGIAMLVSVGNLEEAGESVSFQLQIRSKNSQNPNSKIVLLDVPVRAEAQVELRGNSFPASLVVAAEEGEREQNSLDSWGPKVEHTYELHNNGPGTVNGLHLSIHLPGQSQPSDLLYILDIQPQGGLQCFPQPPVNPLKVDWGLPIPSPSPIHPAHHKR
Integrin alpha-IIb/beta-3, sequence (P08514 891-1039 limits assumed): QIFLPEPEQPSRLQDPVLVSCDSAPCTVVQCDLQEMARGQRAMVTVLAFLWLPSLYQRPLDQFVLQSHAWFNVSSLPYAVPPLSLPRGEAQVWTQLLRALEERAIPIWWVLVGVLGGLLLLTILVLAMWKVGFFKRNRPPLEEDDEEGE

Structure (SMILES)	IC50 [1] [nM]	IC50 (Homo sapiens) [nM]	half-life [2] [min]	bioavailability [3] [%]
O=C(O)CCCCNC(=O)N1CCC2(CC1)CCN(c1ccncc1)C2	11900	10600		
O=C(O)CCCCCNC(=O)N1CCC2(CC1)CCN(c1ccncc1)C2	> 50000	74000		
CCCCOC(=O)N[C@@H](CCC(=O)N1CCC2(CC1)CCN(c1ccncc1)C2)C(=O)O		4000		
O=C(O)CN1CCN(C(=O)N2CCC3(CCN(c4ccncc4)CC3)C2)CC1=O	25	1180		
O=C(O)COC1CCN(C(=O)N2CCC3(CC2)CCN(c2ccncc2)C3)CC1		3800		
O=C(O)CCC(=O)N1CCN(C(=O)N2CCC3(CC2)CCN(c2ccncc2)C3)CC1		24100		
O=C(O)CCCNC(=O)N1CCC2(CC1)CCN(c1ccncc1)C2	> 50000	80000		
O=C(O)COc1ccc(C(=O)N2CCC3(CC2)CCN(c2ccncc2)C3)cc1		11300		
O=C(O)CC1CCN(C(=O)N2CCC3(CC2)CCN(c2ccncc2)C3)CC1	115	1200		
O=C(O)CC(=O)N1CCN(C(=O)N2CCC3(CC2)CCN(c2ccncc2)C3)CC1	136	680		
O=C(O)COc1cccc(C(=O)N2CCC3(CC2)CCN(c2ccncc2)C3)c1	873	18300		
O=C(O)CCCCCC(=O)N1CCC2(CCN(c3ccncc3)CC2)C1	43	1300		
O=C(O)COC1CCN(C(=O)N2CCC3(CCN(c4ccncc4)CC3)C2)CC1	153	1040		
O=C(N[C@@H](CCC(=O)N1CCC2(CC1)CCN(c1ccncc1)C2)C(=O)O)OCc1ccccc1	25	4100		
O=C(O)CCCCC(=O)N1CCC2(CCN(c3ccncc3)CC2)C1	> 50000	80000		
O=C(O)CCN1CCN(C(=O)N2CCC3(CC2)CCN(c2ccncc2)C3)CC1	87	3200		
O=C(O)CCN1CCC(C(=O)N2CCC3(CC2)CCN(c2ccncc2)C3)CC1		1000		
O=C(O)CN1CCN(C(=O)N2CCC3(CC2)CCN(c2ccncc2)C3)CC1		8900		

Structure (SMILES)	IC50 [1] [nM]	IC50 (Homo sapiens) [nM]	half-life [2] [min]	bioavailability [3] [%]
O=C(O)CCN1CCCN(C(=O)N2CCC3(CC2)CCN(c2ccncc2)C3)CC1	254	3700		
O=C(O)[C@H](CCC(=O)N1CCC2(CC1)CCN(c1ccncc1)C2)NS(=O)(=O)c1cnoc1	2	270	22.8	12
O=C(O)CC(=O)NC1CCN(C(=O)N2CCC3(CC2)CCN(c2ccncc2)C3)C1 (stereo unspecified)		5900		
O=C(O)CCNC(=O)N1CCC2(CC1)CCN(c1ccncc1)C2		34600		
O=C(O)CN1CCC(C(=O)N2CCC3(CC2)CCN(c2ccncc2)C3)CC1	320	9500		
O=C(O)CCn1ccc2cc(C(=O)N3CCC4(CC3)CCN(c3ccncc3)C4)ccc21	1800	23300		
O=C(O)CCCCCCC(=O)N1CCC2(CCN(c3ccncc3)CC2)C1		18800		
O=C(O)CC(=O)N1CCC(C(=O)N2CCC3(CCN(c4ccncc4)CC3)C2)CC1		1580		
O=C(O)CS(=O)(=O)N1CCC(C(=O)N2CCC3(CC2)CCN(c2ccncc2)C3)CC1	90	1100		
O=C(O)CC(=O)N1CCCN(C(=O)N2CCC3(CC2)CCN(c2ccncc2)C3)CC1		700		
O=C(O)COCC1CCN(C(=O)N2CCC3(CC2)CCN(c2ccncc2)C3)CC1		2800		
O=C(O)CC(=O)N1CCC(C(=O)N2CCC3(CC2)CCN(c2ccncc2)C3)CC1	4	260	58.8	10
O=C(O)CCN1CCN(C(=O)N2CCC3(CCN(c4ccncc4)CC3)C2)CC1=O	238	8340		
CC(CC(=O)O)N1CCC(C(=O)N2CCC3(CC2)CCN(c2ccncc2)C3)CC1 (stereo unspecified)	225	3300		
O=C(O)Cn1ccc2cc(C(=O)N3CCC4(CC3)CCN(c3ccncc3)C4)ccc21		950		
CN(CC(=O)O)C1CCN(C(=O)N2CCC3(CC2)CCN(c2ccncc2)C3)CC1	1200	12400		
O=C(O)C1CCN(C(=O)N2CCC3(CC2)CCN(c2ccncc2)C3)CC1	4200	55000		
